Several values for one entry are separate records, joined by “and”; a condition that tells them apart may be missing. Identical values can stand only once. Inconclusive results are not listed. Activity calls are given as the source filed them. The rule behind the calls is not given here.
These compounds were tested on Toxoplasma gondii growth in host cells, no IFN-gamma (assay: T. gondii intracellular growth, IFN-gamma absent, dose response, cell-based (AID 1259420);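 note: host cells were HeLa; final incubation lasted 72 hours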).

| SMILES | AC50 |
| --- | --- |
| O=c1c(O)c(-c2ccc(O)c(O)c2)oc2cc(O)cc(O)c12 | 15.8 µM |
| CN1C(=O)c2cc(NC(=O)Cc3cccs3)ccc2OC[C@H]2O[C@H](CC(=O)NCc3ccc(-c4ccccc4)cc3)CC[C@@H]21 | 29.4 µM |
| O=C(C[C@@H]1CC[C@@H]2[C@H](COC[C@H](O)CN2Cc2ccc3c(c2)OCO3)O1)N1CCCCC1 | > 39 µM (inactive) |
| COc1cc(CN2C[C@@H]3N[C@H](C2)C3c2ccc(-c3ccc(C#N)cc3)cc2)cc(OC)c1 (some centres not stated) | 7.99 µM |
| CCCNC(=O)N1[C@H](CO)[C@@H](c2ccc(-c3ccccc3F)cc2)[C@@H]1C#N | > 39 µM (inactive) |
| CC(C)C#Cc1ccc([C@@H]2[C@@H](CO)N(C(=O)c3cccc(F)c3)[C@H]2C#N)cc1 | > 20 µM (inactive) |
| COc1ccccc1-c1ccc2c(c1)[C@@H]1[C@@H](CCN1S(=O)(=O)c1ccc(C)cc1)[C@H](CO)N2 | 12.4 µM |
| COCC1CN(C(=O)Cc2ccsc2)Cc2nccn2C1 (configuration not stated) | 28.3 µM |
| CN(C)C(=O)c1ccc(-c2ccc3c(c2)[C@H]2[C@H](CCN2C(=O)C2CCCC2)[C@@H](CO)N3C)cc1 | 14.6 µM |
| CC(C)Oc1ccc(NC(=O)c2nc3c(n2C(C)C)CCN(C(=O)c2ccccc2)C3)cc1 | 31.9 µM |
| COc1ccc(-c2ccc([C@@H]3[C@@H](CO)N4C(=O)CN(Cc5ccccc5)C[C@H]34)cc2)cc1 | > 39 µM (inactive) |
| Cc1cccc(-c2nc(CN(c3ccccc3)S(=O)(=O)c3ccccc3)c(C)o2)c1 | 17.4 µM |
| COCC(=O)N1[C@@H](C#N)[C@H](c2ccc(C#CCC3CCCC3)cc2)[C@@H]1CO | 18.7 µM |
| O=C(C[C@H]1CC[C@H]2[C@@H](COC[C@H](O)CN2Cc2ccc(Oc3ccccc3)cc2)O1)N1CCN(c2ccccc2)CC1 | 27.6 µM |
| COc1ccc(S(=O)(=O)N2CCCCN3[C@H](CO)[C@@H](c4ccc(C#CCC(C)C)cc4)[C@H]3C2)cc1 | 12.8 µM and 7.95 µM |
| COc1cccc(-c2nc3c(s2)CN(S(=O)(=O)c2cc(C)ccc2C)CC3)c1 | 7.12 µM |
| COc1cc([C@@H]2c3cc4c(cc3C(OC3OC5COC(C)OC5C(O)C3O)C3OCC(=O)[C@@H]32)OCO4)cc(OC)c1O (some centres not stated) | 13.7 µM |
| O=C1CC(c2ccncc2)C2(CCN(Cc3nccs3)CC2)N1 (configuration not stated) | > 39 µM (inactive) |
| C[C@H](NC(=O)C[C@H]1CC[C@@H]2[C@@H](COc3ccc(NS(=O)(=O)c4ccc(Cl)cc4)cc3C(=O)N2C)O1)c1ccccc1 | 13.7 µM and 36.1 µM |
| CCOC(=O)N1CCC(N[C@H]2COC[C@@H]2OCC)CC1 | 36.8 µM |
| COc1ccc(-c2nc(N3CCC(N4CCCCC4)CC3)c3ccccc3n2)cc1 | > 39 µM (inactive) |
| COc1ccccc1CN1CC[C@@H]2[C@H](CO)Nc3ccc(-c4cccc(C(=O)N(C)C)c4)cc3[C@@H]21 | 13.6 µM |

| SMILES | AC50 |
| --- | --- |
| CO[C@H]1CCN(Cc2ccoc2)[C@H]2CN(Cc3ccncc3)C[C@@H]12 | > 39 µM (inactive) |
| C[C@@H]1CN([C@@H](C)CO)C(=O)c2cccc(NC(=O)NC3CCCCC3)c2O[C@@H]1CN(C)Cc1ccc(C(F)(F)F)cc1 | > 39 µM (inactive) |
| Cc1cc(C)n(C)c(=O)c1C(=O)N1CCOC(C(F)(F)F)C1 (configuration not stated) | > 39 µM (inactive) |
| O=C(c1cccc(F)c1)N1CCCCN2[C@H](CO)[C@H](c3ccc(C#CC4(O)CCCC4)cc3)[C@H]2C1 | 32.1 µM |
| N#Cc1cccc(-c2ccc3c(c2)[C@H]2[C@H](CCN2Cc2ccc4c(c2)OCO4)[C@H](CO)N3)c1 | 17.2 µM |
| COc1ccccc1-c1nc(CN2CCc3c(sc4c3CCCC4)C2c2ccccc2)c(C)o1 (configuration not stated) | 22.4 µM |
| COc1cc2c(cc1O)CC[C@@H]1[C@@H]2CC[C@]2(C)[C@@H](O)CC[C@@H]12 | 11.2 µM and 5.79 µM |
| CCCNC(=O)N1[C@H](C#N)[C@H](c2ccc(-c3ccccc3F)cc2)[C@H]1CO | 11.3 µM |
| C/C=C/c1ccc([C@H]2[C@@H](C#N)N(C(=O)NC3CCCCC3)[C@H]2CO)cc1 | 20.9 µM |
| COc1cccc(S(=O)(=O)N2CCCCN3[C@H](CO)[C@@H](c4ccc(C#CCC(C)C)cc4)[C@H]3C2)c1 | 12.1 µM and 13.6 µM and 21.9 µM |
| O=C(C[C@H]1CC[C@H]2[C@@H](COC[C@@H](O)CN2S(=O)(=O)c2ccccc2F)O1)N1CCC(Cc2ccccc2)CC1 | > 20 µM (inactive) |
| CSCc1noc(CN2CCCC3(C2)CN(C)C(=O)O3)n1 (configuration not stated) | > 39 µM (inactive) |
| CN(C)C(=O)c1ccc(-c2ccc3c(c2)[C@@H]2[C@@H](CCN2C(=O)C2CCCC2)[C@@H](CO)N3C)cc1 | 17.5 µM |
| Cc1ccc(S(=O)(=O)Nc2ccc3c(c2)C(=O)N([C@@H](C)CO)C[C@@H](C)[C@H](CN(C)Cc2ccc(C(F)(F)F)cc2)O3)cc1 | > 20 µM (inactive) |
| CC(C)(Cc1ccc2ccccc2c1)NC[C@@H](O)COc1cccc(Cl)c1C#N | 12.3 µM |
| O=C(NC1CCCC1)N1CC[C@H]2CN(Cc3ccc(Cl)cc3)S(=O)(=O)[C@@H]2CC1 | 28.5 µM |
| Cc1cccc(NC2COC3(CCN(C(=O)c4ccsc4)C3)C2)c1 (configuration not stated) | 28.1 µM |
| CCCCCCCCCCCCCCCC[n+]1ccccc1 | 6.86 µM |
| CCc1cnc(N2[C@H](C#N)[C@H](c3ccc(-c4cccc(F)c4)cc3)[C@H]2CO)s1 | 22.6 µM |
| OC[C@H]1[C@@H](c2ccc(C#Cc3ccccc3F)cc2)[C@@H]2CN(CC3CCOCC3)CCCCN12 | 14.8 µM |
| Cc1ccccc1S(=O)(=O)N1C[C@@H]2N[C@H](C1)C2c1ccc(-c2cccc(C#N)c2)cc1 (some centres not stated) | 13.3 µM and 14.8 µM and 31.3 µM |
| O=C(Cc1ccccc1)N1CC[C@H]2[C@H](CO)Nc3ccc(C4=CCCCC4)cc3[C@H]21 | 13.9 µM |

| SMILES | AC50 |
| --- | --- |
| N#C[C@@H]1[C@H](c2ccc(-c3cccc(F)c3)cc2)[C@H](CO)N1C(=O)NC1CCCC1 | 36 µM and 24 µM |
| O=C1CNC[C@H]2[C@@H](c3ccc(Br)cc3)[C@H](CO)N12 | 35.9 µM |
| CN(C)Cc1noc2c1CN(Cc1nccn1C)CC2 | > 39 µM (inactive) |
| COc1ccccc1NC(=O)N1CCCCN2[C@H](CO)[C@H](c3ccc(-c4cccc(C#N)c4)cc3)[C@@H]2C1 | 33.7 µM |
| COCCn1cc2c(n1)C(CNC(=O)CS(C)(=O)=O)OCC2 (configuration not stated) | > 39 µM (inactive) |
| C/C=C/c1ccc([C@H]2[C@H](CO)N3CCCCN(S(=O)(=O)c4ccc(OC)cc4)C[C@@H]23)cc1 | 19.1 µM |
| O=C(C1CCC1)N1C[C@@H]2N[C@H](C1)C2c1ccc(/C=C/c2ccccc2)cc1 (some centres not stated) | 12.7 µM and 11.5 µM |
| COc1ccc(-c2cnc3n2CCNC32CCN(C(=O)N3CCOCC3)CC2)cc1 | > 39 µM (inactive) |
| COc1cccc(CNC(=O)c2cc3c(s2)CCN3C(=O)c2ccc(F)cc2)c1 | 2.74 µM |
| CC(C)CNC(=O)c1nc2c(s1)CCN(C(=O)NCc1ccccc1)CC2 | 18.3 µM |
| CCCC(Nc1nc(-c2cccnc2)nc2c1cnn2C)c1cccs1 (configuration not stated) | > 39 µM (inactive) |
| c1ccc2c(Oc3nc(Nc4ccc(N5CCOCC5)cc4)c4ncn(C5CCCCC5)c4n3)cccc2c1 | 12.7 µM |
| COc1ccc(-c2nc(Nc3ccc(CN4CCC(C)CC4)cc3)c3ccccc3n2)cc1 | 12.6 µM |
| CCN(C)C(=O)c1ccc2ccc(N(C)Cc3ccc(OC)cc3)n2c1 | 19.2 µM |
| CCCCc1ccc(Nc2ncnc3c2cnn3-c2ccc(C)cc2C)cc1 | 11.6 µM |
| COc1cccc(-c2ccc3c(c2)[C@@H]2[C@@H](CCN2C(=O)c2ccccc2F)[C@H](CO)N3C)c1 | 8.81 µM and 10.2 µM |
| COc1ccccc1S(=O)(=O)N1CC[C@@H]2[C@@H](CO)Nc3ccc(-c4ccc(C#N)cc4)cc3[C@@H]21 | 19.8 µM |
| Cc1ccc(S(=O)(=O)Nc2ccc3c(c2)C(=O)N([C@H](C)CO)C[C@H](C)[C@H](CN(C)Cc2ccc(C(F)(F)F)cc2)O3)cc1 | 18.5 µM |
| O=C(O)CN1C[C@H]2c3ccccc3C(OCC3CC3)[C@@H]2C1 (some centres not stated) | > 39 µM (inactive) |
| COc1ccc(S(=O)(=O)N(C)C[C@H]2Oc3c(NC(=O)c4nc5ccccc5s4)cccc3C(=O)N([C@@H](C)CO)C[C@@H]2C)cc1 | 11.3 µM and 1.88 µM |
| COCC1CN(C(=O)c2cc(C)on2)Cc2c1cnn2CC1CC1 (configuration not stated) | > 39 µM (inactive) |
| N#C[C@H]1[C@H](c2ccc(C#Cc3ccccc3F)cc2)[C@@H](CO)N1C(=O)c1cccnc1 | > 39 µM (inactive) |

| SMILES | AC50 |
| --- | --- |
| O=C(Cc1cccnc1)N1CC(=O)N2[C@H](CO)[C@@H](c3ccc(C#CC4CCCCC4)cc3)[C@H]2C1 | > 20 µM (inactive) |
| O=C(CCCCCCNC(=O)c1cnc(N(c2ccccc2)c2ccccc2)nc1)NO | 14.8 µM |
| CC(C)N1CCN(CC#N)C2(CCN(C(=O)c3ccc[nH]3)C2)C1=O (configuration not stated) | 37.9 µM |
| CN(C[C@H]1[C@H](c2ccccc2)[C@@H](CO)N1CC1CC1)C(=O)c1ccc(F)cc1 | > 39 µM (inactive) |
| CCc1c2c(nc3ccc(OC(=O)N4CCC(N5CCCCC5)CC4)cc13)-c1cc3c(c(=O)n1C2)COC(=O)[C@]3(O)CC | 24.7 µM |
| CCCNC(=O)N1C[C@@H]2N[C@H](C1)C2c1ccc(-c2ccc(OC)cc2)cc1 (some centres not stated) | 14.2 µM |
| O=C(CC1CCC2(CC1)CCN(c1ncc(F)cn1)CC2)N1CC=CC1 | 21.7 µM |
| COc1ccccc1NC(=O)N1C[C@H](O)COC[C@@H]2O[C@@H](CC(=O)N3CCC(Cc4ccccc4)CC3)CC[C@H]21 | > 39 µM (inactive) |
| CCc1cnc(N2[C@H](C#N)[C@@H](c3ccc(-c4cccc(F)c4)cc3)[C@@H]2CO)s1 | > 39 µM (inactive) |
| CC(C)CC#Cc1ccc([C@H]2[C@@H](CO)N3CCCCN(C(=O)Nc4ccccc4)C[C@@H]23)cc1 | 15.5 µM |
| CCCNC(=O)c1cc(-c2cnc(NCc3ccccc3)nc2)cn1C | 15.1 µM |
| O=C(CC1CC1)N1CC[C@@H]2[C@@H](CO)Nc3ccc(-c4ccc(F)cc4)cc3[C@@H]21 | 20.2 µM |
| CCc1cnc(N2[C@H](C#N)[C@H](c3ccc(C#Cc4ccccc4F)cc3)[C@@H]2CO)s1 | 11.3 µM |
| Cc1nc2c(cnn2-c2ccccc2)c(=O)n1-c1cccc2ccccc12 | 10.9 µM |
| CC(C)CC#Cc1ccc([C@@H]2[C@@H](CO)N3CCCCN(C(=O)Nc4ccccc4)C[C@@H]23)cc1 | 23.7 µM |
| Cc1ccc(CNC2=NCCNC23CCN(S(=O)(=O)c2ccc4c(c2)CCCC4)CC3)cc1 | 23 µM |
| O=C(O)CC1CCC(c2ccc(-c3ccc(Nc4ccc(C(F)(F)F)nc4)cn3)cc2)CC1 (configuration not stated) | 17.2 µM |
| CCCNC(=O)N1[C@H](C#N)[C@@H](c2ccc(-c3ccccc3F)cc2)[C@H]1CO | 31.9 µM |
| O=C(Nc1cccc(F)c1)N1CCCCN2[C@H](CO)[C@H](c3ccc(C#Cc4cccnc4)cc3)[C@H]2C1 | 16.4 µM |
| CO[C@@H]1[C@@H](OC(N)=O)[C@@H](O)[C@H](Oc2ccc3c(O)c(NC(=O)c4ccc(O)c(CC=C(C)C)c4)c(=O)oc3c2C)OC1(C)C | 18 µM |
| COc1ccccc1C1CN(Cc2cccc(O)c2)Cc2ccccc2O1 (configuration not stated) | 22.8 µM |
